Data from patent US11279686B2, “Nrf2 activating compounds and uses thereof” (Rigel Pharmaceuticals, Inc., priority 2016, dated 2022).
Where a name gives a salt, the structure may show the parent alone.

tested on: not listed separately; experiment: Glutathione depletion assay (Michael reaction with reduced glutathione followed by 1H NMR); conditions: 2 equiv. reduced glutathione, d6-DMSO, 35° C.
Text: See, for example, Lehmann et al. Dimethyfumarate Induces Immunosuppression via Glutathione Depletion and Subsequent Induction of Heme Oxygenase 1, Journal of Investigative Dermatology (2007) 127, 835-845. Accordingly, the present compounds may be assessed in vitro by reaction with glutathione as follows:
(with the top securely fastened).
In all the above cases, dis-appearance of the alkene proton signals from the starting material are used to determine the extent of Michael reaction with glutathione.
As would be understood by those of skill in the art, the above experiments can be repeated by varying the equivalents of reduced glutathione (0.5 to 2 equivalents); the reactions can also be run in a mixture of d6-DMSO and D2O; and the temperature of the reaction can also be varied from room temperature to 35° C. (35° C. being used to mimic body temperature). As used herein “majority reaction” means a greater than 50% reduction in alkene proton signal as observed by ^1H NMR.

Row | Compound | time to majority reaction with glutathione (greater than 50% reduction in alkene proton signal by 1H NMR)
1 | COC(=O)/C=C/n1nnn(C)c1=O [methyl (E)-3-(4-methyl-5-oxo-4,5-dihydro-1H-tetrazol-1-yl)acrylate] | ≤ 30 h
2 | COC(=O)/C=C/n1nn[nH]c1=O [methyl (E)-3-(5-oxo-4,5-dihydro-1H-tetrazol-1-yl)acrylate] | ≤ 30 h

tested on: NrF2 (Nuclear factor (erythroid-derived 2)-like 2); experiment: NrF2 activation in a whole cell nuclear translocation assay; type: cell-based; conditions: read-out: NrF2 translocation assay EC50; whole cell nuclear translocation; Table 2
Experimental: NrF2 Activation in a Whole Cell Nuclear Translocation Assay
Compounds were tested in a NrF2 (Nuclear factor (erythroid-derived 2)-like 2) translocation assay by adapting the methods set forth in U.S. Pat. No. 8,101,373, the disclosure of which is incorporated herein by reference.

Row | Compound | EC50
3 | CS(=O)(=O)/C=C/n1nnn(-c2cccnc2)c1=O [Compound 3, (E)-1-(2-(methylsulfonyl)vinyl)-4-(pyridin-3-yl)-1,4-dihydro-5H-tetrazol-5-one] | 120 nM
4 | CS(=O)(=O)/C=C/C(=O)O [Compound 15, (E)-3-(methylsulfonyl)acrylic Acid] | 44800 nM

same assay, conditions: reference fumarates; read-out: NrF2 activation EC50

Row | EC50 | Compound
5 | ~127000 nM | COC(=O)/C=C/C(=O)O [Monomethyl fumarate, reference compound]
6 | ~7900 nM | COC(=O)/C=C/C(=O)OC [dimethyl fumarate, reference compound]

same assay, conditions: whole cell nuclear translocation; Table 2; read-out: NrF2 translocation assay EC50

Row | EC50 | Compound
7 | 290 nM | Cc1ccc(S(=O)(=O)/C=C/n2nnn(-c3cccnc3)c2=O)cc1 [Compound 1, (E)-1-(pyridin-3-yl)-4-(2-tosylvinyl)-1,4-dihydro-5H-tetrazol-5-one]
8 | 750 nM | COC(=O)/C=C/S(=O)(=O)c1ccc(NC(C)=O)cc1 [Compound 4]
9 | 1000 nM | COC(=O)/C=C/S(C)(=O)=O [Compound 5]
10 | 790 nM | COC(=O)/C=C\S(=O)(=O)c1ccc(F)cc1 [Compound 6]
11 | < 390 nM | CCOC(=O)/C=C/S(=O)(=O)c1ccccc1 [Compound 7]
12 | < 390 nM | COC(=O)/C=C/S(=O)(=O)c1ccc(Br)cc1 [Compound 8]
13 | < 390 nM | COC(=O)/C=C/S(=O)(=O)c1ccc2ccccc2c1 [Compound 9]
14 | 190 nM | CCn1nnn(/C=C/S(=O)(=O)c2ccc(C)cc2)c1=O [Compound 16, (E)-1-ethyl-4-(2-tosylvinyl)-1,4-dihydro-5H-tetrazol-5-one]
15 | 170 nM | Cc1ccc(S(=O)(=O)/C=C/n2nnn(Cc3ccccc3)c2=O)cc1 [Compound 17, (E)-1-benzyl-4-(2-tosylvinyl)-1,4-dihydro-5H-tetrazol-5-one]
16 | 200 nM | Cn1nnn(/C=C/S(=O)(=O)c2ccc(F)cc2)c1=O [Compound 18, (E)-1-(2-((4-fluorophenyl)sulfonyl)vinyl)-4-methyl-1,4-dihydro-5H-tetrazol-5-one]
17 | 30 nM | O=c1n(/C=C/S(=O)(=O)c2ccc(F)cc2)nnn1-c1cccnc1 [Compound 19, (E)-1-(2-((4-fluorophenyl)sulfonyl)vinyl)-4-(pyridin-3-yl)-1,4-dihydro-5H-tetrazol-5-one]

tested on: experimental autoimmune encephalomyelitis (EAE); experiment: Experimental autoimmune encephalomyelitis (EAE) animal model; type: in vivo, C57BL/6 mice; conditions: dosed at 60 mg/kg beginning on the day of immunization

Row | Compound | onset of disease paralysis
18 | COC(=O)/C=C/n1nn[nH]c1=O [methyl (E)-3-(5-oxo-4,5-dihydro-1H-tetrazol-1-yl)acrylate] | significantly prevents
